Test results reported in the supplement of paper PMC10307832.

Experiments:
Experiment in all cases: relative viability (nuclei count vs DMSO), 5 days (fraction); higher = more cells survive
[1] = tested on: 201T
Outline: (§1)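 Dosing by pin tool came one day after lung cancer cell lines were seeded in 1536-well plates, using either one drug or a fixed anchor-drug dose plus five library-drug doses (not always all listed) in √10 steps. After 5 days, nuclei were counted on 4× images. Relative viability is treated-well nuclei count divided by vehicle-well nuclei count, and values are medians of duplicate plates.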

[2] = tested on: COR-L23
Outline: as §1

[3] = tested on: EKVX
Outline: as §1

[4] = tested on: EPLC-272H
Outline: as §1

[5] = tested on: HCC-44
Outline: as §1

[6] = tested on: LOU-NH91
Outline: as §1

[7] = tested on: NCI-H1650
Outline: as §1

[8] = tested on: NCI-H1734
Outline: as §1

[9] = tested on: NCI-H1793
Outline: as §1

[10] = tested on: NCI-H1993
Outline: as §1

[11] = tested on: NCI-H2023
Outline: as §1

[12] = tested on: NCI-H2085
Outline: as §1

[13] = tested on: NCI-H2170
Outline: as §1

[14] = tested on: NCI-H2347
Outline: as §1

[15] = tested on: NCI-H2405
Outline: as §1

[16] = tested on: NCI-H3122
Outline: as §1

[17] = tested on: NCI-H441
Outline: as §1

[18] = tested on: NCI-H520
Outline: as §1

[19] = tested on: NCI-H647
Outline: as §1

[20] = tested on: PC-14
Outline: as §1

[21] = tested on: RERF-LC-KJ
Outline: as §1

## COc1cc(N2CCC(C(N)=O)CC2)ccc1Nc1nc(N)c(Cl)c(Nc2ccccc2S(=O)(=O)C(C)C)n1 [HG-5-88-01] + CC1(C)CCC(c2ccc(Cl)cc2)=C(CN2CCN(c3ccc(C(=O)NS(=O)(=O)c4ccc(N[C@H](CCN5CCOCC5)CSc5ccccc5)c(S(=O)(=O)C(F)(F)F)c4)cc3)CC2)C1 [Navitoclax] (partner 0.5 µM)
[1]; first compound 0.04 µM
  relative viability: 1.22
[1]; first compound 0.1265 µM
  relative viability: 1.22
[1]; first compound 0.4 µM
  relative viability: 1.28
[1]; first compound 1.265 µM
  relative viability: 1.18
[1]; first compound 4 µM
  relative viability: 1.17
[2]; first compound 0.04 µM
  relative viability: 0.936
[2]; first compound 0.1265 µM
  relative viability: 1
[2]; first compound 0.4 µM
  relative viability: 0.998
[2]; first compound 1.265 µM
  relative viability: 0.883
[2]; first compound 4 µM
  relative viability: 0.98
[3]; first compound 0.04 µM
  relative viability: 1.03
[3]; first compound 0.1265 µM
  relative viability: 0.952
[3]; first compound 0.4 µM
  relative viability: 0.634
[3]; first compound 4 µM
  relative viability: 0.839
[4]; first compound 0.04 µM
  relative viability: 1.22
[4]; first compound 0.1265 µM
  relative viability: 1.05
[4]; first compound 0.4 µM
  relative viability: 1.28
[4]; first compound 1.265 µM
  relative viability: 0.982
[4]; first compound 4 µM
  relative viability: 0.27
[5]; first compound 0.04 µM
  relative viability: 1.07
[5]; first compound 0.1265 µM
  relative viability: 1.03
[5]; first compound 0.4 µM
  relative viability: 0.77
[5]; first compound 1.265 µM
  relative viability: 0.922
[5]; first compound 4 µM
  relative viability: 0.846
[6]; first compound 0.04 µM
  relative viability: 0.72
[6]; first compound 0.1265 µM
  relative viability: 0.693
[6]; first compound 0.4 µM
  relative viability: 0.605
[6]; first compound 1.265 µM
  relative viability: 0.378
[6]; first compound 4 µM
  relative viability: 0.468
[7]; first compound 0.04 µM
  relative viability: 1.54
[7]; first compound 0.1265 µM
  relative viability: 1.32
[7]; first compound 0.4 µM
  relative viability: 1.26
[7]; first compound 1.265 µM
  relative viability: 0.918
[7]; first compound 4 µM
  relative viability: 1.07
[8]; first compound 0.04 µM
  relative viability: 0.771
[8]; first compound 0.1265 µM
  relative viability: 0.858
[8]; first compound 0.4 µM
  relative viability: 0.943
[8]; first compound 1.265 µM
  relative viability: 0.827
[8]; first compound 4 µM
  relative viability: 0.757
[9]; first compound 0.1265 µM
  relative viability: 0.409
[9]; first compound 0.4 µM
  relative viability: 0.473
[9]; first compound 1.265 µM
  relative viability: 0.296
[9]; first compound 4 µM
  relative viability: 0.438
[10]; first compound 0.04 µM
  relative viability: 1.06
[10]; first compound 0.1265 µM
  relative viability: 0.976
[10]; first compound 0.4 µM
  relative viability: 0.911
[10]; first compound 1.265 µM
  relative viability: 0.736
[10]; first compound 4 µM
  relative viability: 0.735
[11]; first compound 0.04 µM
  relative viability: 1.01
[11]; first compound 0.1265 µM
  relative viability: 0.94
[11]; first compound 0.4 µM
  relative viability: 0.934
[11]; first compound 1.265 µM
  relative viability: 0.787
[11]; first compound 4 µM
  relative viability: 0.804
[12]; first compound 0.04 µM
  relative viability: 1.2
[12]; first compound 0.1265 µM
  relative viability: 1.26
[12]; first compound 0.4 µM
  relative viability: 1.06
[12]; first compound 1.265 µM
  relative viability: 0.873
[12]; first compound 4 µM
  relative viability: 1.13
[13]; first compound 0.04 µM
  relative viability: 0.554
[13]; first compound 0.1265 µM
  relative viability: 0.574
[13]; first compound 0.4 µM
  relative viability: 0.674
[13]; first compound 1.265 µM
  relative viability: 0.311
[13]; first compound 4 µM
  relative viability: 0.73
[14]; first compound 0.04 µM
  relative viability: 0.786
[14]; first compound 0.1265 µM
  relative viability: 0.863
[14]; first compound 0.4 µM
  relative viability: 0.893
[14]; first compound 1.265 µM
  relative viability: 0.696
[14]; first compound 4 µM
  relative viability: 0.685
[15]; first compound 0.04 µM
  relative viability: 0.99
[15]; first compound 0.1265 µM
  relative viability: 1.03
[15]; first compound 0.4 µM
  relative viability: 0.825
[15]; first compound 1.265 µM
  relative viability: 0.319
[15]; first compound 4 µM
  relative viability: 0.784
[16]; first compound 0.04 µM
  relative viability: 0.905
[16]; first compound 0.1265 µM
  relative viability: 0.611
[16]; first compound 0.4 µM
  relative viability: 0.444
[16]; first compound 1.265 µM
  relative viability: 0.198
[16]; first compound 4 µM
  relative viability: 0.255
[17]; first compound 0.04 µM
  relative viability: 0.661
[17]; first compound 0.1265 µM
  relative viability: 0.675
[17]; first compound 0.4 µM
  relative viability: 0.714
[17]; first compound 1.265 µM
  relative viability: 0.609
[17]; first compound 4 µM
  relative viability: 0.679
[18]; first compound 0.04 µM
  relative viability: 1.09
[18]; first compound 0.1265 µM
  relative viability: 1.09
[18]; first compound 0.4 µM
  relative viability: 0.761
[18]; first compound 1.265 µM
  relative viability: 1.17
[18]; first compound 4 µM
  relative viability: 1.26
[19]; first compound 0.04 µM
  relative viability: 1.19
[19]; first compound 0.1265 µM
  relative viability: 1.26
[19]; first compound 0.4 µM
  relative viability: 1.24
[19]; first compound 1.265 µM
  relative viability: 1.27
[19]; first compound 4 µM
  relative viability: 1.13
[20]; first compound 0.04 µM
  relative viability: 0.953
[20]; first compound 0.1265 µM
  relative viability: 1.05
[20]; first compound 0.4 µM
  relative viability: 0.995
[20]; first compound 1.265 µM
  relative viability: 1.12
[20]; first compound 4 µM
  relative viability: 0.272
[21]; first compound 0.04 µM
  relative viability: 1.05
[21]; first compound 0.1265 µM
  relative viability: 0.846
[21]; first compound 0.4 µM
  relative viability: 0.954
[21]; first compound 1.265 µM
  relative viability: 0.941
[21]; first compound 4 µM
  relative viability: 0.5
